Some targets named below: 5-HT2A (Homo sapiens, UniProt P28223); 5-HT2B (Homo sapiens, UniProt P41595); h5-HT4B (Homo sapiens, UniProt Q13639).
Common to all, as to experiment: receptor-ligand binding
Another experiment concerns the target T1, hD4 (Homo sapiens, UniProt P21917).
T1 sequence (P21917 1-419): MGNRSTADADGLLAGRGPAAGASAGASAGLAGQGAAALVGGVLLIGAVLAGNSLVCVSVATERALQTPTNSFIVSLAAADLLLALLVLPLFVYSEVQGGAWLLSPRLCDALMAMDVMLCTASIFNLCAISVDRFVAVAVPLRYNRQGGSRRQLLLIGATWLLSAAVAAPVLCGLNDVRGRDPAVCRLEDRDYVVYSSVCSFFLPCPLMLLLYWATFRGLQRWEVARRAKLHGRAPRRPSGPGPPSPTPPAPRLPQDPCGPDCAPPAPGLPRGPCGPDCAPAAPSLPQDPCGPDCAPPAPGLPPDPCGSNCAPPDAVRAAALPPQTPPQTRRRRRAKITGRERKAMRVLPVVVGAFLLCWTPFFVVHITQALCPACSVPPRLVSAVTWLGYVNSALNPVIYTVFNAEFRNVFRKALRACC
The conditions noted are these: given as a range.

For another experiment, the target named is T2, m5-HT3 (Mus musculus, UniProt P23979).
T2 sequence (P23979 24-489): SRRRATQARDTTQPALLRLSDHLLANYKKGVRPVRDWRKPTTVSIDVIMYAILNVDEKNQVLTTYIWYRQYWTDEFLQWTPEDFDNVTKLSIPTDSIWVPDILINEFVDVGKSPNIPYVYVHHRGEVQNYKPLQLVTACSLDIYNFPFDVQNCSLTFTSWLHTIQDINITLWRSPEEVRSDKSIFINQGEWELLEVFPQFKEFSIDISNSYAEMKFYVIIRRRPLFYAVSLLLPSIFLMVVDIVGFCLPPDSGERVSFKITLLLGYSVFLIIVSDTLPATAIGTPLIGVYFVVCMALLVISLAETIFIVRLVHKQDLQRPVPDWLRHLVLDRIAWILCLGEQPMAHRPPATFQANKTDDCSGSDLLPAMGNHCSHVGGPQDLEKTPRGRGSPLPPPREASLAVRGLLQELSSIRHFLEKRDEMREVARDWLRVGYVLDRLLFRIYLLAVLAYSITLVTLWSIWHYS
Conditions: given as a range.

The target in the next experiment is T3, 5-HT2C (Homo sapiens, UniProt P28335).
T3 sequence (P28335 33-458): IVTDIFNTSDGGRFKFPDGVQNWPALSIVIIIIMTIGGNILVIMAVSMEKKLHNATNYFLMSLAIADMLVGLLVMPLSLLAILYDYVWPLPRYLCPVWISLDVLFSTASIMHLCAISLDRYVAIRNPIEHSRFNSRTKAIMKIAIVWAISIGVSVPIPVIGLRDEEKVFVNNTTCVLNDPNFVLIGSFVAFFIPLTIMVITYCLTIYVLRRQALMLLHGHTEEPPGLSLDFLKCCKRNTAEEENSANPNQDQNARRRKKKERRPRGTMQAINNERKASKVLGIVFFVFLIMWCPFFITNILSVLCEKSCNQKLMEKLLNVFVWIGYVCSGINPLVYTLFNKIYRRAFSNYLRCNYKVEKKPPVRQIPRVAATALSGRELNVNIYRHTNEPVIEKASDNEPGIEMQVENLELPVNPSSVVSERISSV

The target in another experiment is Human D2 (Homo sapiens, UniProt P14416). Conditions: read-out: Ki (μM) / Human D2.
A further experiment concerns the target Rat D2 (Rattus norvegicus, UniProt P61169). The conditions noted are these: read-out: Ki (μM) / Rat D2.

The values below come from article PMC9983627 (Drugs in Context, 2023).

Molecules are shown by their SMILES.

Sequence of 5-HT2A (P28223 whole entry): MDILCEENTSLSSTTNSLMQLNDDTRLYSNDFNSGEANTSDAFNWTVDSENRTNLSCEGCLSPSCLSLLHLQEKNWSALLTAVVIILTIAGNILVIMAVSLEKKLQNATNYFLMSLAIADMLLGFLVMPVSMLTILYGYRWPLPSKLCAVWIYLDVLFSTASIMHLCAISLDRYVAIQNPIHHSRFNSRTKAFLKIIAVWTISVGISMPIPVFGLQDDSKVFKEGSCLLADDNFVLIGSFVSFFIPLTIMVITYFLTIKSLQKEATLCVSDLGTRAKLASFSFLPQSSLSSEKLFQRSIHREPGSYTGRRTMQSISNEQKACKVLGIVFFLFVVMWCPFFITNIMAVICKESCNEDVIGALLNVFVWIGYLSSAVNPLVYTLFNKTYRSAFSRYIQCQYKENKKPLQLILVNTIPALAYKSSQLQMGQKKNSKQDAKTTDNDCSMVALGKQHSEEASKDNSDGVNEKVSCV
Sequence of Rat D2 (P61169 whole entry): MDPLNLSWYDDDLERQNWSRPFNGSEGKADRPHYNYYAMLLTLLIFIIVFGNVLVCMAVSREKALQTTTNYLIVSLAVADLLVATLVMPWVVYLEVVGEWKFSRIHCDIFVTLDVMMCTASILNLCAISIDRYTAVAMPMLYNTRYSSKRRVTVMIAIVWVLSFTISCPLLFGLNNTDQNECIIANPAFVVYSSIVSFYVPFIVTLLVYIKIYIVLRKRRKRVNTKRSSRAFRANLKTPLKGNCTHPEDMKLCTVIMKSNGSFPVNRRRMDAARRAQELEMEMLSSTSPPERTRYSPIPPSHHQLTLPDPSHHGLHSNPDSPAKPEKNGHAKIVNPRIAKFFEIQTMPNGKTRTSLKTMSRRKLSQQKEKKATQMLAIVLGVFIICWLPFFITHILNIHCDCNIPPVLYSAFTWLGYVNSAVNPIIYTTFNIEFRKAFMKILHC
Sequence of Human D2 (P14416 whole entry): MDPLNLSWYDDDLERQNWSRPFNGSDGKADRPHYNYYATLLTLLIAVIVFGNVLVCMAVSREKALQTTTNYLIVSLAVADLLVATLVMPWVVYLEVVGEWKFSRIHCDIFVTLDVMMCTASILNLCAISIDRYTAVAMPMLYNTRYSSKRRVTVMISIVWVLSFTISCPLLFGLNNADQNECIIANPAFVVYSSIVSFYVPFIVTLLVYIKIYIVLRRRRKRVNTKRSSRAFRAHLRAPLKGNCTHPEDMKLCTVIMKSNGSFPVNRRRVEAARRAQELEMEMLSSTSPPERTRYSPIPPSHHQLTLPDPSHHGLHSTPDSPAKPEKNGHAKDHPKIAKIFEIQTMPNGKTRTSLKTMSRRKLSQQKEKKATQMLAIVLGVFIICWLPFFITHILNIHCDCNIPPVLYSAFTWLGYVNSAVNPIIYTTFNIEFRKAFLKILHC
Sequence of 5-HT2B (P41595 whole entry): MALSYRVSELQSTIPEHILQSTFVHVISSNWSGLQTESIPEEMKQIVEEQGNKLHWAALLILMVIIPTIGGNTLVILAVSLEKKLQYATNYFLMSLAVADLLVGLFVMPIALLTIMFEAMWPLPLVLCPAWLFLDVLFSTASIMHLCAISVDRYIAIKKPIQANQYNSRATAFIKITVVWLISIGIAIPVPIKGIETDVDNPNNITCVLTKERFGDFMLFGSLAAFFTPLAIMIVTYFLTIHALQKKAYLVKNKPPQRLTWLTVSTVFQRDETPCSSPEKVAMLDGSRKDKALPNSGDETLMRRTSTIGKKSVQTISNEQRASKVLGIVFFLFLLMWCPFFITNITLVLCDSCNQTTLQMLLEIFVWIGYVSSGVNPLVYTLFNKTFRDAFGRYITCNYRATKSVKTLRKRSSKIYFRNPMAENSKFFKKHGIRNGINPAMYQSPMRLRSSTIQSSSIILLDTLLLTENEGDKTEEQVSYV
Sequence of h5-HT4B (Q13639 whole entry): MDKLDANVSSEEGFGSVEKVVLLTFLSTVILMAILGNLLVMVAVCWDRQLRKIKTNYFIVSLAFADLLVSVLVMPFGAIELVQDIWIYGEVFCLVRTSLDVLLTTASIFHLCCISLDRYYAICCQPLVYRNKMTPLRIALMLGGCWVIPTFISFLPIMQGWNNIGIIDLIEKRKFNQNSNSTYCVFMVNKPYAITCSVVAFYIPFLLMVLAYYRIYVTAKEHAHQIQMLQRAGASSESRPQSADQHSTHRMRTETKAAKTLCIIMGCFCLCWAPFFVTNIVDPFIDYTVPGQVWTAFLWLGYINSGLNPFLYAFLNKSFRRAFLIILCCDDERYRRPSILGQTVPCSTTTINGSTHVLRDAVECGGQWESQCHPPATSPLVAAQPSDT

Regarding `COCCCN1CCC(NC(=O)c2cc(Cl)c(N)c3c2OCC3)CC1` [Prucalopride], the Ki is 1.6 to 2.4 µM at hD4; 30 µM on 5-HT2A; 3.5 to 3.8 µM at m5-HT3; 41 µM on 5-HT2C; 14 µM on Human D2; 6 µM at Rat D2.
For the compound `Nc1c(Cl)cc(C(=O)NC2CCN(CCC(=O)O)CC2)c2c1CCO2` [R107504], the Ki on 5-HT2B came out at 10 µM; on 5-HT2A it was 136 µM; at 5-HT2C it was 211 µM; on h5-HT4B it was 0.074 µM; at Human D2, 235 µM; on Rat D2, 138 µM.
